Consider 29 molecules from patent publication US8853207B2 (Development Center for Biotechnology, priority 2012, dated 2014).

pIC50: −log10 of the molar value. Where a name gives a salt, the structure may show the parent alone.

Chain of FLT3 kinase (FLT3 kinase domain alone, Upstate) (P36888 610-943): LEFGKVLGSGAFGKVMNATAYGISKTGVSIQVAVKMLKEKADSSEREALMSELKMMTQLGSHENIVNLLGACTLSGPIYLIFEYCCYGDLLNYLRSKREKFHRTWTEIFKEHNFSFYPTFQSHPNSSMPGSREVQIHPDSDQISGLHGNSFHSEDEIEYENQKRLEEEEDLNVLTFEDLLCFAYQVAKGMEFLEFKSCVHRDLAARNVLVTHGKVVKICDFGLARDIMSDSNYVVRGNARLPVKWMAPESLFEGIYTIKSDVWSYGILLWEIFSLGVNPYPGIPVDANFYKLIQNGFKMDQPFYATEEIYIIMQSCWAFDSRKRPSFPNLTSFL

In this test the target is FLT3 kinase (FLT3 kinase domain alone, Upstate) (Homo sapiens (Human), UniProt P36888). Put plainly: FLT3 kinase assay ([33P] incorporation into substrate). The format is biochemical. Particulars: 100 μM ATP, 30° C., 30 minutes; read-out: IC50 against FLT3. The protocol:
Inhibition of FLT3 kinase activity by compounds disclosed herein was quantified by measuring the amount of [^33P] incorporated into the substrate in the presence of a test compound. Briefly, a reaction mixture of 25 μL final volume containing 5 ng of FLT3 kinase (FLT3 kinase domain alone, Upstate), 5 μg of the substrate [(Poly (Glu-Tyr, 4:1), Sigma], kinase reaction buffer (20 mM MOPS pH 7.0, 1 mM EDTA, 5% glycerol, 0.01% Brij-35, 0.1% β-mercaptoethanol, 1 mg/mL BSA, 100 μM ATP, 0.1 μCi per well [^33P]-γ-ATP (2,500-3,000 Ci/mmol)), and a test compound (diluted from 9 μM to the desired final concentration by 4% DMSO) or DMSO (as the control) was incubated at 30° C. for 30 minutes. The reaction was stopped by adding 5 μL of 3% phosphoric acid solution. The resultant solution (30 μL) was later harvested by a UniFilter Plate GF/B (PerkinElmer) followed by adding 30 μL of the scintillation cocktail (MicroScint 20, PerkinElmer) to the well. The radioactivity retained on the filter membrane was measured by a luminescence counter (PerkinElmer). The results were analyzed by using linear regression software (GraphPad Prism 4; GraphPad Software Inc.).
Take `Nc1ccc(-c2cc3c(s2)Cc2c(-c4ccc(N5CCOCC5)cc4)n[nH]c2-3)cn1` [Example-88, 5-[6-(4-Morpholin-4-yl-phenyl)-4,7-dihydro-1-thia-4,5-diaza-cyclopenta[a]pentalen-2-yl]-pyridin-2-Ylamine hydrochloride]: the pIC50 was greater than 7.00.
In the case of “6-(3-Fluoro-phenyl)-4,7-dihydro-1-thia-4,5-diaza-cyclopenta[a]pentalene [Example-38]”, the pIC50 was 6.30 to 7.00.
Turning to `CN1CCN(c2ccc(-c3n[nH]c4c3Cc3sc(-c5ccc(N)nc5)cc3-4)cc2)CC1` [Example-89, 5-{6-[4-(4-Methyl-piperazin-1-yl)-phenyl]-4,7-dihydro-1-thia-4,5-diaza-cyclopenta[a]pentalen-2-yl}-pyridin-2-ylamine hydrochloride], the pIC50 was greater than 7.00.
The result for `Brc1ccccc1-c1n[nH]c2c1Cc1sccc1-2` [Example-44, 6-(2-Bromo-phenyl)-4,7-dihydro-1-thia-4,5-diaza-cyclopenta[a]pentalene] reads less than 6.00; that for `c1cc2c(s1)Cc1c(-c3ccc(N4CCCC4)cc3)n[nH]c1-2` [Example-84, 6-(4-Pyrrolidin-1-yl-phenyl)-4,7-dihydro-1-thia-4,5-diaza-cyclopenta[a]pentalene], 6.30 to 7.00.
As for “6-[4-(4-Methyl-piperazin-1-yl)-phenyl]-2-pyridin-3-yl-4,7-dihydro-1-thia-4,5-diaza-cyclopenta[a]pentalene hydrochloride [Example-90]”, the pIC50 is greater than 7.00.
In the case of `COc1ccc(-c2n[nH]c3c2Cc2sc(-c4ccc(N5CCN(C)CC5)nc4)cc2-3)cc1` [Example-81, 6-(4-Methoxy-phenyl)-2-[6-(4-methyl-piperazin-1-yl)-pyridin-3-yl]-4,7-dihydro-1-thia-4,5-diaza-cyclopenta[a]pentalene], the pIC50 is greater than 7.00.
As to `[O-][n+]1ccc(-c2n[nH]c3c2Cc2sccc2-3)cc1` [Example-61, 6-(1-Oxy-pyridin-4-yl)-4,7-dihydro-1-thia-4,5-diaza-cyclopenta[a]pentalene], the pIC50 was 6.30 to 7.00.
With `COc1ccc(-c2n[nH]c3c2Cc2sc(-c4ccc(O)c(OC)c4)cc2-3)cc1` [Example-75, 2-Methoxy-4-[6-(4-methoxy-phenyl)-4,7-dihydro-1-thia-4,5-diaza-cyclopenta[a]pentalen-2-yl]-phenol], the pIC50 was greater than 7.00.
Regarding `Clc1cccc(Nc2[nH]nc3c2Cc2sccc2-3)c1` [Example-25, (3-Chloro-phenyl)-(4,7-dihydro-1-thia-4,5-diaza-cyclopenta[a]pentalen-6-yl)-amine], the pIC50 is greater than 7.00.
The result for `COc1ccc(Nc2n[nH]c3c2Cc2sccc2-3)cc1OC` [Example-24, (4,7-Dihydro-1-thia-4,5-diaza-cyclopenta[a]pentalen-6-yl)-(3,4-dimethoxy-phenyl)-amine] reads greater than 7.00.
Take `C(=Cc1ccc(-c2n[nH]c3c2Cc2sccc2-3)cc1)c1ccccc1` [Example-12, 6-(4-Styryl-phenyl)-4,7-dihydro-1-thia-4,5-diaza-cyclopenta[a]pentalene]: the pIC50 is less than 6.00.
On to `c1ccc(-c2n[nH]c3c2Cc2sccc2-3)cc1` [Example-6, 6-Phenyl-4,7-dihydro-1-thia-4,5-diaza-cyclopenta[a]pentalene], for which the pIC50 is 6.30 to 7.00.
On to `O=[N+]([O-])c1ccc(-c2n[nH]c3c2Cc2sccc2-3)cc1` [Example-5, 6-(4-Nitro-phenyl)-4,7-dihydro-1-thia-4,5-diaza-cyclopenta[a]pentalene], for which the pIC50 is 6.30 to 7.00.
In the case of `Brc1cccc(-c2n[nH]c3c2Cc2sccc2-3)c1` [Example-47, 6-(3-Bromo-phenyl)-4,7-dihydro-1-thia-4,5-diaza-cyclopenta[a]pentalene], the pIC50 was greater than 7.00.
Turning to `Nc1ccc(-c2cc3c(s2)Cc2c(-c4ccc(O)cc4)n[nH]c2-3)cn1` [Example-92, 4-[2-(6-Amino-pyridin-3-yl)-4,7-dihydro-1-thia-4,5-diaza-cyclopenta[a]pentalen-6-yl]-phenol], the pIC50 was greater than 7.00.
On to `FC(F)(F)c1ccccc1Nc1n[nH]c2c1Cc1sccc1-2` [Example-42, (4,7-Dihydro-1-thia-4,5-diaza-cyclopenta[a]pentalen-6-yl)-(2-trifluoromethyl-phenyl)-amine], for which the pIC50 is less than 6.00.
For `COc1ccc(-c2n[nH]c3c2Cc2sccc2-3)c(OC)c1` [Example-4, 6-(2,4-Dimethoxy-phenyl)-4,7-dihydro-1-thia-4,5-diaza-cyclopenta[a]pentalene] the value was greater than 7.00; for `COc1ccc(Nc2n[nH]c3c2Cc2sccc2-3)cc1` [Example-23, (4,7-Dihydro-1-thia-4,5-diaza-cyclopenta[a]pentalen-6-yl)-(4-methoxy-phenyl)-amine], less than 6.00; for `Clc1ccc(Nc2n[nH]c3c2Cc2sccc2-3)c(Cl)c1` [Example-21, (2,4-Dichloro-phenyl)-(4,7-dihydro-1-thia-4,5-diaza-cyclopenta[a]pentalen-6-yl)-amine], 6.00 to 6.30.
Turning to `COc1ccc(Nc2ccc(-c3n[nH]c4c3Cc3sccc3-4)cc2)cc1` [Example-8, [4-(4,7-Dihydro-1-thia-4,5-diaza-cyclopenta[a]pentalen-6-yl)-phenyl]-(4-methoxy-phenyl)-amine], the pIC50 is 6.30 to 7.00.
As to `Clc1ccc(Nc2n[nH]c3c2Cc2sccc2-3)cc1` [Example-32, (4-Chloro-phenyl)-(4,7-dihydro-1-thia-4,5-diaza-cyclopenta[a]pentalen-6-yl)-amine], the pIC50 is 6.30 to 7.00.
On to `c1cc(Nc2ccc(-c3n[nH]c4c3Cc3sccc3-4)cc2)ccn1` [Example-62, [4-(4,7-Dihydro-1-thia-4,5-diaza-cyclopenta[a]pentalen-6-yl)-phenyl]-pyridin-4-yl-amine hydrochloride], for which the pIC50 is greater than 7.00.
Take `COc1ccc(-c2n[nH]c3c2Cc2sc(-c4ccccc4)cc2-3)cc1` [Example-65, 6-(4-Methoxy-phenyl)-2-phenyl-4,7-dihydro-1-thia-4,5-diaza-cyclopenta[a]pentalene]: the pIC50 was greater than 7.00.
With `COc1ccc(-c2ccc(-c3n[nH]c4c3Cc3sccc3-4)cc2)cc1OC` [Example-14, 6-(3′,4′-Dimethoxy-biphenyl-4-yl)-4,7-dihydro-1-thia-4,5-diaza-cyclopenta[a]pent alene], the pIC50 is greater than 7.00.
The result for `[O-][n+]1cccc(-c2n[nH]c3c2Cc2sccc2-3)c1` [Example-28, 6-(1-Oxy-pyridin-3-yl)-4,7-dihydro-1-thia-4,5-diaza-cyclopenta[a]pentalene] reads less than 6.00.
As to `COc1ccc(-c2n[nH]c3c2Cc2sc(Br)cc2-3)cc1` [Example-34, 2-Bromo-6-(4-methoxy-phenyl)-4,7-dihydro-1-thia-4,5-diaza-cyclopenta[a]pentalene], the negative-log IC50 (pIC50) is greater than 7.00.
Regarding `O=C1c2sccc2-c2[nH]nc(-c3cccc(Cl)c3)c21` [Example-50, 6-(3-Chloro-phenyl)-4H-1-thia-4,5-diaza-cyclopenta[a]pentalen-7-one], the pIC50 was 6.30 to 7.00.
For the molecule `COc1ccc(-c2n[nH]c3c2Cc2sc(-c4ccc(F)cc4)cc2-3)cc1` [Example-71, 2-(4-Fluoro-phenyl)-6-(4-methoxy-phenyl)-4,7-dihydro-1-thia-4,5-diaza-cyclopenta[a]pentalene], the pIC50 is greater than 7.00.

The pIC50 is the IC50 on a negative log10 scale, so that one unit is a factor of ten.
